From the supplement of paper PMC10307832

Assays:
Test in all cases: relative viability (nuclei count vs DMSO), 5 days (fraction); higher = more cells survive
Dovitinib + Phenformin = compound: CN1CCN(c2ccc3nc(-c4c(N)c5c(F)cccc5[nH]c4=O)[nH]c3c2)CC1 [Dovitinib] + N=C(N)NC(=N)NCCc1ccccc1 [Phenformin] (partner 250 µM)
Summary of the method: (§1)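 The day after seeding in 1536-well plates, lung cancer cell lines were treated by pin tool with a single drug, or with a fixed anchor-drug dose together with five library-drug doses (not always all listed) in √10 steps. After 5 days, a combined fix-and-stain solution (final 0.05% Triton X-100, 1% formaldehyde, 1 ug/ml Hoechst) was added. Nuclei counted on 4× images gave relative viability as treated counts over vehicle counts, reported as the median of duplicate plates.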

Dovitinib + Olaparib = compound: CN1CCN(c2ccc3nc(-c4c(N)c5c(F)cccc5[nH]c4=O)[nH]c3c2)CC1 [Dovitinib] + O=C(c1cc(Cc2n[nH]c(=O)c3ccccc23)ccc1F)N1CCN(C(=O)C2CC2)CC1 [Olaparib] (partner 8 µM)
Summary of the method: as §1

Dovitinib + Trametinib = compound: CN1CCN(c2ccc3nc(-c4c(N)c5c(F)cccc5[nH]c4=O)[nH]c3c2)CC1 [Dovitinib] + CC(=O)Nc1cccc(-n2c(=O)n(C3CC3)c(=O)c3c(Nc4ccc(I)cc4F)n(C)c(=O)c(C)c32)c1 [Trametinib] (partner 0.02 µM)
Summary of the method: as §1

Dovitinib = compound: CN1CCN(c2ccc3nc(-c4c(N)c5c(F)cccc5[nH]c4=O)[nH]c3c2)CC1 [Dovitinib]
Summary of the method: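 Lung cancer cell lines received five library-drug doses (not always all listed) spaced by √10, pinned on vehicle-anchored 1536-well plates after an overnight stay at 37 °C. Five days later, with no medium change, nuclei were Hoechst-stained, imaged at 4× and counted with MetaXpress. Viability is treated-well nuclei relative to vehicle-well nuclei, as a median across plates. Passing plates had control CV below 25% and at least one doubling.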

| Cell Line | relative viability (Dovitinib + Phenformin; first compound 0.02 µM) | relative viability (Dovitinib + Phenformin; first compound 0.06325 µM) | relative viability (Dovitinib + Phenformin; first compound 0.2 µM) | relative viability (Dovitinib + Phenformin; first compound 0.6325 µM) | relative viability (Dovitinib + Phenformin; first compound 2 µM) | relative viability (Dovitinib + Olaparib; first compound 0.02 µM) | relative viability (Dovitinib + Olaparib; first compound 0.06325 µM) | relative viability (Dovitinib + Olaparib; first compound 0.2 µM) | relative viability (Dovitinib + Olaparib; first compound 0.6325 µM) | relative viability (Dovitinib + Olaparib; first compound 2 µM) | relative viability (Dovitinib + Trametinib; first compound 0.02 µM) | relative viability (Dovitinib + Trametinib; first compound 0.06325 µM) | relative viability (Dovitinib + Trametinib; first compound 0.2 µM) | relative viability (Dovitinib + Trametinib; first compound 0.6325 µM) | relative viability (Dovitinib + Trametinib; first compound 2 µM) | relative viability (Dovitinib; 0.02 µM) | relative viability (Dovitinib; 0.06325 µM) | relative viability (Dovitinib; 0.2 µM) | relative viability (Dovitinib; 0.6325 µM) | relative viability (Dovitinib; 2 µM) |
| --- | --- | --- | --- | --- | --- | --- | --- | --- | --- | --- | --- | --- | --- | --- | --- | --- | --- | --- | --- | --- |
| NCI-H1755 | 0.625 | 0.601 | 0.617 | 0.591 | 0.657 | 0.893 | 0.858 | 0.914 | 0.842 | 0.878 | 0.831 | 0.766 | 0.794 | 0.733 | 0.758 | 1.04 | 1.02 | 1.01 | 0.998 | 1.02 |
| NCI-H1437 | 0.297 | 0.292 | 0.595 | 0.304 | 0.346 | 0.623 | 0.647 | 0.612 | 0.632 | 0.655 | 0.564 | 0.475 | 0.521 | 0.519 | 0.462 | 0.973 | 1.03 | 0.971 | 1.04 | 1.02 |
| NCI-H2085 | 0.69 | 0.846 | 0.732 | 0.771 | 0.717 | 0.731 | 0.828 | 0.723 | 0.762 | 0.758 | 0.534 | 0.628 | 0.599 | 0.528 | 0.627 | 1 | 1.01 | 1.03 | 1.02 | 0.985 |
| H3255 | 0.378 | 0.347 | 0.381 | 0.372 | 0.441 | 0.549 | 0.553 | 0.547 | 0.542 | 0.548 | 0.699 | 0.578 | 0.746 | 0.614 | 0.566 | 0.955 | 1.02 | 0.997 | 1.01 | 1.06 |
| NCI-H650 | 0.442 | 0.417 | 0.446 | 0.461 | 0.504 | 0.348 | 0.388 | 0.391 | 0.414 | 0.429 | 1.02 | 0.952 | 1.08 | 0.946 | 1.21 | 0.97 | 0.883 | 1 | 0.927 | 1.03 |
| LCLC-103H | 0.357 | 0.331 | 0.336 | 0.345 | 0.305 | 0.765 | 0.763 | 0.751 | 0.759 | 0.718 | 0.683 | 0.723 | 0.622 | 0.556 | 0.667 | 0.975 | 0.931 | 1.03 | 1.06 | 0.992 |
| LOU-NH91 | 0.826 | 0.666 | 0.748 | 0.785 | 0.775 | 0.94 | 0.922 | 0.93 | 0.907 | 0.948 | 0.81 | 0.784 | 0.798 | 0.82 | 0.815 | 1.02 | 0.945 | 0.939 | 1.07 | 0.984 |
| NCI-H1650 | 0.517 | 0.5 | 0.513 | 0.448 | 0.388 | 0.595 | 0.703 | 0.823 | 0.804 | 0.733 | 0.718 | 0.625 | 0.757 | 0.598 | 0.816 | 0.949 | 0.998 | 0.987 | 0.93 | 1.05 |
| NCI-H3122 | 0.34 | 0.362 | 0.414 | 0.33 | 0.385 | 0.623 | 0.619 | 0.663 | 0.56 | 0.536 | 0.217 | 0.226 | 0.231 | 0.234 | 0.248 | 0.947 | 0.963 | 0.955 | 0.966 | 0.999 |
| PC-3 [JPC-3] | 0.486 | 0.494 | 0.467 | 0.474 | 0.474 | 1.16 | 1.16 | 1.14 | 1.13 | 1.15 | 0.767 | 0.675 | 0.731 | 0.738 | 0.715 | 1.1 | 0.962 | 1.04 | 1.07 | 1.08 |
| NCI-H1651 | 0.336 | 0.352 | 0.485 | 0.347 | 0.275 | 0.175 | 0.187 | 0.167 | 0.191 | 0.163 | 0.852 | 0.809 | 0.816 | 0.81 | 0.857 | 0.986 | 0.999 | 1.03 | 1.06 | 0.963 |
| NCI-H2087 | 0.415 | 0.437 | 0.516 | 0.53 | 0.467 | 0.631 | 0.519 | 0.604 | 0.571 | 0.689 | 0.274 | 0.221 | 0.251 | 0.196 | 0.214 | 0.981 | 0.982 | 1.05 | 1.18 | 1.05 |
